In patent US8076485B2, “Methylphenidate derivatives and uses of them” (priority 2005, dated 2011):

How the values were obtained:
Type in all cases: cell-based, human
IL-8 [1] = assay: IL-8 release by TNFα-stimulated HUVECs (ELISA); conditions: for IL-8 release stimulated by TNFα: HUVECs, 10 ng/ml TNFα, Cpd II 1-30 μg/ml, MP 15 μg/ml, Dex 10 μM, LY 294002 10 μM
Protocol: Passage 4 HUVECs, human source lot number 8710 (obtained from ATCC), were put into the wells of a 24-well tissue culture plate at 5,000 cells/well in EGM-2 medium and cultured for 72 hours at 37° C. and 5% CO2. […] After incubation for 1 hour at 37° C. and 5% CO2, TNFα (Pierce) was added to give a final concentration of 10 ng/ml, and the cells were incubated for an additional 18 hours at 37° C. and 5% CO2. After this incubation, the supernatants were collected, and the amount of IL-8 in the supernatants determined by ELISA as described in Example 4.

c-Jun = c-Jun in VEGF-treated HUVECs (TransAM AP-1 assay); conditions: Cpd II at 15 μg/ml and 5 μg/ml
Protocol: The amount of c-Jun was determined using a TransAM™ AP-1 Family Transcription Factor Assay Kit and a Nuclear Extract Kit from Active Motif North America, Carlsbad, Calif., according to manufacturer's instructions. Briefly, a nuclear extract of the cells was prepared using the Nuclear Extract Kit. Then, the nuclear extract was added to the wells of a 96-well plate in which oligonucleotide containing a TPA-responsive element (TRE) was immobilized. Activator protein-1 (AP-1) dimers contained in the nuclear extract were bound to this oligonucleotide and were detected using an antibody specific for c-Jun. A secondary antibody conjugated to horseradish peroxidase (HRP) was next added to provide a colorimetric readout that was quantified by spectrophotometry (measurement at 450 nm).

IL-8 [2] = assay: IL-8 release by LPS-stimulated HUVECs (ELISA); conditions: 15 μg/ml
Protocol: Passage 4 HUVECs, lot number 9713, were put into the wells of a 48-well tissue culture plate at 20,000 cells/well in 500 μl of EGM-2 complete medium (but without serum or ascorbate) supplemented with ITSS (insulin, transferrin and sodium selenite) (obtained from Sigma). Also, passage 4 HUVECs, human source lot number 7016 (obtained from ATCC), were put into the wells of a 48-well tissue culture plate at 20,000 cells/well in 500 μl of EGM-2 complete medium (but without serum or ascorbate) supplemented with ITSS. The following additives were added to the cells: water (vehicle control) and 15 μg/ml of the compound of formula II (Cpd II). After incubation for 1 hour at 37° C. and 5% CO2, LPS was added to give a final concentration of 200 ng/ml, and the cells were incubated overnight at 37° C. and 5% CO2. After this incubation, the supernatants were collected, and the amount of IL-8 in the supernatants determined by ELISA as described in Example 4.

[3] = test system: CD3/CD28 stimulated TRiPS cells; assay: Custom AntibodyArray of cell extracts of CD3/CD28 stimulated TRiPS cells; conditions: 15 μg/ml, 30 minutes; antibody array, phospho-specific detection
Protocol: Day 18 TRiPS cells, 1×10^6, were incubated for 30 minutes at 37° C., either with nothing added (“Nil”), with 1 μl CD3/CD28 Dynabeads (Dynal, Oslo, Norway) (“CD3/CD28 beads”) per 100,000 cells, or with CD3/CD28 beads and 15 μg/ml of the compound of formula II (Cpd II). After the incubation, the cells were lysed in Cell-Lytic Mammalian Cell Extraction Reagent (Sigma). After centrifugation to pellet cellular debris, the supernatants (cell extracts) were obtained.
The cell extracts (supernatants) were then analyzed using a Custom AntibodyArray™ manufactured by Hypromatrix Inc., Worcester, Mass., following the manufacturer's instructions. The Custom AntibodyArray™ is a nylon membrane blotted with antibodies to the proteins listed below. Briefly, the cell extracts were incubated with duplicate Custom AntibodyArray™, s for 2 hours at room temperature with slow shaking, followed by three washes with Tris buffer (150 mM NaCl, 25 mM Tris, 0.05% Tween-20, pH 7.5). HRP-labeled antibodies specific for phosphorylated-tyrosine, phosphorylated-serine and phosphorylated-threonine in Tris buffer were added, and the arrays incubated for 2 hours. After three more washes with Tris buffer, a peroxidase-reactive luminescent substrate was added. The arrays were visualized by exposure to X-ray film. Densitometry of the X-ray films was measured by scanning and computer analysis.

[4] = Homo sapiens, HUVEC, 18 h, read-out: % inhibition (IL-8)

## COC(=O)C(c1ccccc1)C1CCCCN1 (centres unmarked) [methylphenidate]
IL-8 [1]
  IL-8 release stimulated by TNFα: slightly decreased IL-8 release
IL-8 [1]; [4]
  inhibition at 15 µg/mL: 15.2%

## COC(=O)C(c1ccc(-c2ccccc2)cc1)C1CCCCN1 (centres unmarked) [Cpd II]
c-Jun
  increase in the amount of c-Jun: completely eliminated the increase in the amount of c-Jun
IL-8 [2]; 7016 HUVECs, LPS 200 ng/ml overnight, LPS only 53.3
  IL-8 (pg/ml): Below detection
IL-8 [2]; 7016 HUVECs, LPS 200 ng/ml
  IL-8 release: complete eliminated IL-8 release
IL-8 [2]; 9713 HUVECs, LPS 200 ng/ml
  decrease of IL-8 release: 90%
[3]
  Effect of Cpd II on the protein in CD3/CD28 stimulated TRiPS cells: 14-3-3: Slightly decreased the level
  Effect of Cpd II on the protein in CD3/CD28 stimulated TRiPS cells: IL-2: Decreased level back to basal levels (Nil control)
  Effect of Cpd II on the protein in CD3/CD28 stimulated TRiPS cells: IL-4: Decreased level back to basal levels (Nil control)
  Effect of Cpd II on the protein in CD3/CD28 stimulated TRiPS cells: IL-7y: Decreased level back to basal levels (Nil control)
  Effect of Cpd II on the protein in CD3/CD28 stimulated TRiPS cells: IkB-r: Decreased level back to basal levels (Nil control)
  Effect of Cpd II on the protein in CD3/CD28 stimulated TRiPS cells: IkB-α: Slightly decreased the level
  Effect of Cpd II on the protein in CD3/CD28 stimulated TRiPS cells: IkB-β: Decreased level back to basal levels (Nil control)
  Effect of Cpd II on the protein in CD3/CD28 stimulated TRiPS cells: IkB-ε: Slightly decreased the level
  Effect of Cpd II on the protein in CD3/CD28 stimulated TRiPS cells: JAK2: Activated
  Effect of Cpd II on the protein in CD3/CD28 stimulated TRiPS cells: JNK1: Decreased level back to basal levels (Nil control)
  Effect of Cpd II on the protein in CD3/CD28 stimulated TRiPS cells: JNK2: Decreased level back to basal levels (Nil control)
  Effect of Cpd II on the protein in CD3/CD28 stimulated TRiPS cells: JNK3: Decreased level back to basal levels (Nil control)
  Effect of Cpd II on the protein in CD3/CD28 stimulated TRiPS cells: MEK1: Decreased level to below basal levels (Nil control)
  Effect of Cpd II on the protein in CD3/CD28 stimulated TRiPS cells: MEKK1: Decreased level back to basal levels (Nil control)
  Effect of Cpd II on the protein in CD3/CD28 stimulated TRiPS cells: PI3kinaseP85: Activated
  Effect of Cpd II on the protein in CD3/CD28 stimulated TRiPS cells: RAP1: Activated
  Effect of Cpd II on the protein in CD3/CD28 stimulated TRiPS cells: RAP2: Activated
  Effect of Cpd II on the protein in CD3/CD28 stimulated TRiPS cells: STAT4: Activated
  Effect of Cpd II on the protein in CD3/CD28 stimulated TRiPS cells: STAT5b: Activated
  Effect of Cpd II on the protein in CD3/CD28 stimulated TRiPS cells: STAT6: Slightly decreased the level
IL-8 [1]
  IL-8 release stimulated by TNFα: decreased IL-8 release stimulated by TNFα in a dose-dependent manner
IL-8 [1]; [4]
  inhibition at 1 µg/mL: -51.1%
  inhibition at 5 µg/mL: 3.08%
  inhibition at 10 µg/mL: 38.2%
  inhibition at 15 µg/mL: 41.7%
  inhibition at 30 µg/mL: 86.9%
